Measurements published in patent US20180354921A1, “SUBSTITUTED OXADIAZOLES FOR COMBATING PHYTOPATHOGENIC FUNGI” (BASF SE, priority 2015, published 2018).

- melting point: 198 °C
Structure (SMILES): O=C(Cc1ccccc1)Nc1ccc(-c2noc(C(F)(F)F)n2)cc1 [Ex-1, 2-phenyl-N-[4-[5-(trifluoromethyl)-1,2,4-oxadiazol-3-yl]phenyl]acetamide]
